The text below walks through data of patent US3963707A, “Novel N-nitroso compounds, compositions containing such compounds, processes for their preparation and methods of treatment therewith, and novel intermediates” (Aktiebolaget Leo, priority 1973, dated 1976).

Data set [1] deals with Lymphatic leukemia L 1210. Kind of data set: Lymphatic leukemia L 1210 test. In kind it is in vivo, CDF1 (C3H×DBA/2)F1 mice. Conditions: for Effect %: survival time as percentage of control; for Weight change v: vs control up to the 5th day. The text has this:
(§1) The experimental design and the interpretation of the results have been in accordance with the standards set by the CCNSC (Cancer Chemotherapy Reports, January 1959 and December 1962), and by the DR&D (Cancer Chemotherapy Reports, September 1972, Vol. 3, No. 2).
(§2) The way of administration is by the intraperitoneal route (i.p.) in each case.
Lymphatic leukemia L 1210
Experimental animals: CDF1 (C3H×DBA/2)F1 mice.
Tumour implant: 10^5 tumour cells i.p.
(§3) Therapy: One injection i.p. on the day following implantation.
Evaluation: a) The survival time of the test animals (t) expressed as the percentage of that of control animals (c).
b. Weight change in the test animals (T) compared with that of the control animals (c) up to the 5th day.
c. The mortality rate must not exceed 35% in the test animals on the 5th day of therapy.

Another data set in a line: in vivo. Details: species or system SPF Wistar rats. Particulars: rat, in vivo, ip; one injection i.p., rats; dose causing 50 percent lethality. The method in brief:
(§4)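 SPF Wistar rats were implanted i.p. with 5 × 10^6 AH 130 cells and given one i.p. dose the next day. On day 8 they were killed and tumour weights were compared with controls. ED50 is the dose halving tumour size, LD50 the 50% lethal dose, and T.I. is LD50/ED50.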

A further data set has as its system Hepatoma AH 130. Description: in vivo. Conditions: for T.I. (LD50/ED50): Hepatoma AH 130, rats, i.p.; for ED50: Rattus norvegicus, ip, 192 h, one injection i.p. day after implantation, dose causing 50 percent reduction of tumour size. Details: species or system SPF Wistar rats. The procedure, abridged: as §4
In data set [2] the test system is Walker carcinosarcoma 256. Description: Walker carcinosarcoma 256 test. Particulars: for Lethality: died/used animals. Type of data set: in vivo, Sprague Dawley rats.
Excerpt: as §1, §2
Walker carcinosarcoma 256
Experimental animals: Sprague Dawley rats.
Tumour implant: Tumour pieces with 2-4 mm diameter, subcutaneously.
Therapy: Daily injections i.p. for 5 days starting on the day following implantation.
Termination: The animals are killed on the 9th day.
Evaluation: Weights of tumours of test animals are compared with those of control animals. The differences, in per cent of weights of tumours of control animals, give per cent tumour inhibition.
The lethality is given as the number of animals which died in the experiment/the number of animals used in the experiments.

Data set [3] deals with Ehrlich ascites tumour, ELD hyperdiploid (46 chromosomes). Description: Ehrlich ascites tumour test (LD50, ED50, therapeutic index). In kind it is in vivo, SPF NMRI mice. Conditions: additional compounds, result in words.
Excerpt: The high activity against tumours is further illustrated in these experiments by comparisons with known antitumour agents used in the therapy. The therapeutic indexes (T.I.), i.e. the ratios LD50/ED50, are in all comparisons much more favourable with the compounds of the present invention.
LD50 is the dose that caused a 50 percent lethality of the animals, ED50 is the dose that caused a 50 percent reduction of tumour size.
as §1, §2
Ehrlich ascites tumour, ELD hyperdiploid (46 chromosomes)
Experimental animals: SPF NMRI mice.
Tumour implant: 2 × 10^6 tumour cells i.p.
as §3
Termination: The animals are killed on the 8th day.
Evaluation: Weights of tumours of test animals compared with those of control animals.

On to `C[C@]12CC[C@H](OC(=O)N(CCCl)N=O)C[C@@H]1CC[C@@H]1[C@@H]2CC[C@]2(C)C(=O)CC[C@@H]12` [epiandrosterone-3β-N-(2-chloroethyl)-N-nitroso carbamate], for which, in data set [1] (1×250 mg/kg i.p.), the Mortality is reported as 0/20, the Effect % was 130% and the Weight change v is on record as -1.6 g. In addition, the 50% lethal dose (LD50) in the data set “in vivo” was over 1000 mg/kg. For the same compound, in the data set with Hepatoma AH 130, the “T.I. (LD50/ED50)” value is over 5.000 and the median effective dose (ED50) was 0.2 mg/kg. Further, in data set [2] (5×125 mg/kg i.p.), the Tumour inhibition % came to 47% and the Lethality was 0/8. For the same compound, in data set [3], the anti-tumor activity result is listed as “exhibit anti-tumor activity”.

In the data set “in vivo”, `CC(=O)O[C@H]1CC[C@H]2[C@@H]3CCc4cc(OC(=O)N(CCCl)N=O)ccc4[C@H]3CC[C@]12C` [estradiol-17β-acetate-3-N-(2-chloroethyl)-N-nitroso carbamate] gave an LD50 of over 1000 mg/kg. Further, in the data set on Hepatoma AH 130, the “T.I. (LD50/ED50)” value was over 4.000 and the ED50 is under 0.25 mg/kg. Moreover, in data set [2] (5×125 mg/kg i.p.), the Tumour inhibition % was 69% and the Lethality was 1/8. In data set [3], the anti-tumor activity result was “exhibit anti-tumor activity”.

As to `C[C@]12CCC(=O)C[C@@H]1CC[C@@H]1[C@@H]2CC[C@]2(C)[C@@H](OC(=O)N(CCCl)N=O)CC[C@@H]12` [dihydrotestosterone-17β-N-(2-chloroethyl)-N-nitroso carbamate], in data set [1] (1×125 mg/kg i.p.), the Mortality is given as 0/20, the Effect % was found to be 135% and the Weight change v is -0.9 g. In addition, the LD50 in the data set “in vivo” is over 1000 mg/kg. In the data set on Hepatoma AH 130, this compound returned an ED50 of 1 mg/kg. For the same compound, in data set [2] (5×250 mg/kg i.p.), the Tumour inhibition % came out at 51% and the Lethality was 0/8. Also, in data set [3], the anti-tumor activity entry is “exhibit anti-tumor activity”.

`CC(C)CCC[C@@H](C)[C@H]1CC[C@H]2[C@@H]3CC=C4C[C@@H](OC(=O)N(CCCl)N=O)CC[C@]4(C)[C@H]3CC[C@]12C` [cholesterol-3β-N-(2-chloroethyl)-N-nitroso carbamate] gave an LD50 in “in vivo” of over 1000 mg/kg. Besides, in the data set with Hepatoma AH 130, the “T.I. (LD50/ED50)” value is given as over 5 and it took a dose of 200 mg/kg to reach the 50% effect level (ED50). For the same compound, in data set [2] (5×500 mg/kg i.p.), the Tumour inhibition % is listed as 39% and the Lethality is listed as 0/8. Besides, the anti-tumor activity result in data set [3] is given as “exhibit anti-tumor activity”.

Compound `CC(=O)O[C@H]1CC[C@H]2[C@@H]3CC=C4C[C@@H](OC(=O)N(CCCl)N=O)CC[C@]4(C)[C@H]3CC[C@]12C` [androstenediol-17β-acetate-3β-N-(2-chloroethyl)-N-nitroso carbamate] yielded an LD50 in “in vivo” of over 250 mg/kg. In the data set with Hepatoma AH 130, this compound gave an ED50 of 0.25 mg/kg. In addition, in data set [2] (5×125 mg/kg i.p.), the Tumour inhibition % was 59% and the Lethality was 0/8. Also, the anti-tumor activity result in data set [3] was “exhibit anti-tumor activity”.

As to `C[C@]12CC[C@@H](OC(=O)N(CCCl)N=O)C[C@@H]1CC[C@@H]1[C@@H]2CC[C@]2(C)C(=O)CC[C@@H]12` [androsterone-3α-N-(2-chloroethyl)-N-nitroso carbamate], in data set [1] (1×125 mg/kg i.p.), the Mortality is given as 0/20, the Effect % was 153% and the Weight change v was -2.4 g. In the data set “in vivo”, this compound had an LD50 of over 1000 mg/kg. Also, in the data set with Hepatoma AH 130, the “T.I. (LD50/ED50)” value was over 100 and the 50% effective dose (ED50) was 10 mg/kg. Besides, in data set [2] (5×250 mg/kg i.p.), the Tumour inhibition % is 82% and the Lethality is listed as 0/8. In data set [3], the anti-tumor activity entry is “exhibit anti-tumor activity”.

In the case of `C[C@]12CC[C@H]3[C@@H](CC=C4C[C@@H](OC(=O)N(CCCl)N=O)CC[C@@]43C)[C@@H]1CC[C@@H]2OC(=O)N(CCCl)N=O` [androstenediol-3β,17β-bis-/N-(2-chloroethyl)-N-nitroso carbamate/], in the data set “in vivo”, the LD50 is over 250 mg/kg. This compound returned an ED50 in the data set on Hepatoma AH 130 of 0.25 mg/kg. In data set [3], the anti-tumor activity entry is reported as “exhibit anti-tumor activity”.

The compound `COc1ccc2c(c1)CC[C@@H]1[C@@H]2CC[C@]2(C)[C@@H](OC(=O)N(CCCl)N=O)CC[C@@H]12` [estradiol-3-methylether-17β-N-(2-chloroethyl)-N-nitroso carbamate] had an LD50 in the data set “in vivo” of over 1000 mg/kg. Besides, in the data set on Hepatoma AH 130, the “T.I. (LD50/ED50)” value is given as over 2.000 and the ED50 is 0.5 mg/kg. Also, in data set [2] (5×250 mg/kg i.p.), the Tumour inhibition % came out at 66% and the Lethality is 0/8. Also, the anti-tumor activity entry in data set [3] is recorded as “exhibit anti-tumor activity”.

Turning to `C[C@]12CC[C@@H]3c4ccc(OC(=O)c5ccccc5)cc4CC[C@H]3[C@@H]1CC[C@@H]2OC(=O)N(CCCl)N=O` [estradiol-3-benzoate-17β-N-(2-chloroethyl)-N-nitroso carbamate], the LD50 in the data set “in vivo” is over 1000 mg/kg. In the data set on Hepatoma AH 130, the “T.I. (LD50/ED50)” value is on record as over 16 and the median effective dose (ED50) was under 63 mg/kg. For the same compound, in data set [2] (5×125 mg/kg i.p.), the Tumour inhibition % came out at 73% and the Lethality is given as 0/8. Further, the anti-tumor activity result in data set [3] is on record as “exhibit anti-tumor activity”.

On to `CCN(N=O)C(=O)O[C@H]1CC[C@@]2(C)C(=CC[C@@H]3[C@@H]2CC[C@]2(C)C(=O)CC[C@@H]32)C1` [dehydroepiandrosterone-3β-N-ethyl-N-nitroso carbamate, reference compound], for which, in data set [1] (dose of 1000 mg/kg, comparative compounds), the “effect on L 1210” value is “without effect”. Besides, in the data set with Hepatoma AH 130 (doses 1 × 250, 1 × 500 and 1 × 1000 mg/kg respectively), the anti-tumor activity entry was “inactive”. Besides, in data set [2] (5×500 mg/kg i.p.), the Tumour inhibition % worked out at 0% and the Lethality is given as 1/8.

The compound `CC(Cl)CN(N=O)C(=O)O[C@H]1CC[C@@]2(C)C(=CC[C@@H]3[C@@H]2CC[C@]2(C)C(=O)CC[C@@H]32)C1` (stereo partly drawn) [dehydroepiandrosterone-3β-N-(2-chloropropyl)-N-nitroso carbamate] yielded an LD50 in “in vivo” of over 1000 mg/kg. In the data set with Hepatoma AH 130, the “T.I. (LD50/ED50)” value is over 10 and the 50% effect level (ED50) was put at a dose of 100 mg/kg. For the same compound, the anti-tumor activity entry in data set [3] is reported as “exhibit anti-tumor activity”.

For the compound `C[C@]12CC[C@@H]3c4ccc(OC(=O)N(CCCl)N=O)cc4CC[C@H]3[C@@H]1CC[C@@H]2O` [17β-estradiol-3-N-(2-chloroethyl)-N-nitroso carbamate], the 50% lethal dose (LD50) in the data set “in vivo” is over 1000 mg/kg. In addition, in the data set on Hepatoma AH 130, the “T.I. (LD50/ED50)” value is listed as over 4.000 and the ED50 is under 0.25 mg/kg. Moreover, in data set [2] (5×31 mg/kg i.p.), the Tumour inhibition % turned out to be 86% and the Lethality was 0/8. Moreover, the anti-tumor activity entry in data set [3] is listed as “exhibit anti-tumor activity”.

Take `C[C@]12CC[C@H](OC(=O)N(CCBr)N=O)CC1=CC[C@@H]1[C@@H]2CC[C@]2(C)C(=O)CC[C@@H]12` [dehydroepiandrosterone-3β-N-(2-bromoethyl)-N-nitroso carbamate]: the LD50 in “in vivo” is over 1000 mg/kg. For the same compound, in the data set with Hepatoma AH 130, the “T.I. (LD50/ED50)” value is given as over 14 and the ED50 amounted to 70 mg/kg. Moreover, in data set [2] (5×250 mg/kg i.p.), the Tumour inhibition % was 61% and the Lethality is recorded as 0/8. Also, the anti-tumor activity result in data set [3] is listed as “exhibit anti-tumor activity”.

For `C[C@]12CC[C@H](OC(=O)N(CCCCl)N=O)CC1=CC[C@@H]1[C@@H]2CC[C@]2(C)C(=O)CC[C@@H]12` [dehydroepiandrosterone-3β-N-(3-chloropropyl)-N-nitroso carbamate], in the data set “in vivo”, the LD50 was over 1000 mg/kg. In the data set on Hepatoma AH 130, the “T.I. (LD50/ED50)” value is listed as over 2.7 and it took a dose of 375 mg/kg to reach the 50% effect level (ED50). Also, in data set [2] (5×500 mg/kg i.p.), the Tumour inhibition % was found to be 24% and the Lethality is on record as 0/8. For the same compound, in data set [3], the anti-tumor activity entry is “exhibit anti-tumor activity”.

In the data set “in vivo”, `CC(=O)O[C@H]1CC[C@@]2(C)C(=CC[C@H]3[C@@H]4CC[C@H](OC(=O)N(CCCl)N=O)[C@@]4(C)CC[C@@H]32)C1` [androstenediol-3β-acetate-17β-N-(2-chloroethyl)-N-nitroso carbamate] displayed an LD50 of over 250 mg/kg. Besides, the ED50 in the data set on Hepatoma AH 130 was 0.25 mg/kg. Besides, in data set [2] (5×125 mg/kg i.p.), the Tumour inhibition % came to 41% and the Lethality was 0/8. In data set [3], the anti-tumor activity result is recorded as “exhibit anti-tumor activity”.
